The subject of data set [1] is IL-1β. It is filed as cell-based, human.
Data set [2] concerns SARS-CoV-2 (isolate Wuhan-Hu-1). Nature of the data set: microbe, parasite or virus in culture. It is filed as cell-based. The following applies: for IC50: Severe acute respiratory syndrome coronavirus 2, Vero C1008, 24 h, read-out: IC50 (half-maximal inhibitory concentration), anti-SARS-CoV-2 activity.
Data set [3] concerns SARS-CoV-2 S protein-mediated cell-cell fusion. Type of data set: cell-based.
For data set [4], the system named is SARS-CoV-2 S PsV. Nature of the data set: microbe, parasite or virus in culture. Type of data set: cell-based.
Data set [5] can be described thus: in vitro. To be noted: human.
Data set [6] can be described thus: in vitro. To be noted: African green monkey.
The test system of data set [7] is CXCL-10. Type of data set: cell-based, human.
Data set [8] has as its system 3 C-like protease. To be noted: cited from earlier work.
The subject of data set [9] is IL-6. Type of data set: cell-based, human.
For data set [10], the system named is papain-like protease. To be noted: cited from earlier work.

The values that follow come from publication PMC9618446 (Biomedicine & Pharmacotherapy, 2022).

Bounds are passed on as bounds.

As to `Oc1ccc(/C=C/c2cc(O)cc(O)c2)cc1` [RE, Resveratrol], the “release of IL-1β from THP-1 cells” value in data set [1] is “inhibited the release of IL-1β”.

As to `COc1c(O)cc2oc(-c3ccccc3)cc(=O)c2c1O` [OA, Oroxylin A], in data set [1], the “release of IL-1β from THP-1 cells” value was “inhibited the release of both CXCL-10 and IL-1β”. Also, in [2], the “SI: selectivity index as CC50/IC50” value is recorded as more than 6.37. In addition, the IC50 in data set [2] was 31.39 ± 0.07 µM; in data set [4] (Severe acute respiratory syndrome coronavirus 2, read-out: IC50 against SARS-CoV-2 S PsV infection), 15 ± 1.46 µM. Also, the “SARS-CoV-2 S protein-mediated cell-cell fusion (syncytium formation)” value in data set [3] was “significantly inhibited”. Further, the CC50 is more than 400 µM in [5] and more than 200 µM in data set [6]. The “release of CXCL-10 from THP-1 cells” value in data set [7] is “inhibited the release of both CXCL-10 and IL-1β”.

For `COc1ccc([C@@H]2CC(=O)c3c(O)cc(O)cc3O2)cc1O` [HE, Hesperetin], in data set [2], the “SI: selectivity index as CC50/IC50” value was more than 4.00 and the IC50 is 50 ± 0.66 µM. In data set [5], this compound yielded a CC50 of more than 400 µM. Further, in [6], the CC50 is more than 200 µM.

Consider `O=C(/C=C/c1ccc(O)cc1)c1ccc(O)cc1O` [IS, Isoliquiritigenin], for which the “release of IL-1β from THP-1 cells” value in data set [1] was “inhibited the release of both CXCL-10 and IL-1β”. The “release of CXCL-10 from THP-1 cells” value in [7] is “inhibited the release of both CXCL-10 and IL-1β”.

With `O=c1cc(-c2ccc(O)c(O)c2)oc2cc(O)cc(O)c12` [LU, Luteolin], in data set [7], the “release of CXCL-10 from THP-1 cells” value is “inhibited the release of CXCL-10”.

Take `COc1c(O)cc2occ(-c3ccc(O)cc3)c(=O)c2c1O` [TE, Tectorigenin]: the “release of IL-1β from THP-1 cells” value in [1] was “inhibited the release of both CXCL-10 and IL-1β”. In addition, the “inhibition of SARS-CoV-2 infection” value in data set [2] is recorded as “approximately 48.31%”. The “release of CXCL-10 from THP-1 cells” value in data set [7] is “inhibited the release of both CXCL-10 and IL-1β”.

In the case of `O=C(O)[C@H]1O[C@@H](Oc2cc3oc(-c4ccc(O)cc4)cc(=O)c3c(O)c2O)[C@H](O)[C@@H](O)[C@@H]1O` [SC, Scutellarin], in data set [8], the “inhibition of 3 C-like protease activity” value is “nor the activity of 3 C-like protease and papain-like protease”. In addition, in data set [2], the “SI: selectivity index as CC50/IC50” value is recorded as more than 8.90 and the IC50 is 22.47 ± 0.19 µM. In [9], the “release of IL-6 from THP-1 cells” value is “except SC”. The “inhibitory activity against entry of SARS-CoV-2 S PsV (in words)” value in [4] is “inhibits neither the entry of SARS-CoV-2 S PsV”. Further, in data set [5], the CC50 is more than 400 µM. Further, the “inhibition of papain-like protease activity” value in data set [10] was “nor the activity of 3 C-like protease and papain-like protease”. For the same compound, the CC50 in data set [6] is more than 200 µM.

Regarding `O=C1C[C@@H](c2ccc(O)cc2)Oc2cc(O)cc(O)c21` [NA, Naringenin], the “release of CXCL-10 from THP-1 cells” value in [7] was “inhibited the release of CXCL-10”.
